Experimental data: patent US20100273189A1, “NON SEPARATION ASSAYS WITH SELECTIVE SIGNAL INHIBITORS” (BECKMAN COULTER, INC., priority 2009, published 2010)

Assays:
[1] = tested on: beta hCG; assay: Beta hCG assay, AK-Ab1 particle + HRP-Ab2 conjugate; format: biochemical, human; settings: ascorbic acid employed
Experimental: This example describes a method of detecting beta-human chorionic gonadotrophin (beta hCG) using an AK-Abl particle prepared as set forth in Example 3 and a HRP-Ab2 conjugate prepared as set forth in Example 4 where Ab2 represents an antibody to beta hCG. This method employed ascorbic acid to decrease background signal.
HRP-Ab2 conjugate suspensions were prepared at 1.0 μg/mL and contained either 0 or 1 mM ascorbic acid. Samples consisted of human serum samples with the indicated mounts of beta hCG added or no beta hCG as a control. The test procedure consisted of adding 20 μL of 1.0 μg/mL HRP-Ab2 conjugate and 30 μL of MES buffer containing 1 mg/mL BSA and 1 mg/mL MIgG, pH 5.9 to the reaction vessel. Next, 25 μL of patient serum sample was added, followed by 25 μL of 10 mg/mL AK-Abl conjugate suspension thereby obtaining 100 μL of total volume in the reaction vessel. After 15.2 minutes, 100 μL of trigger solution A was added to the reaction vessel and the light intensity was recorded on the modified DxI instrument. Chemiluminescence intensity is expressed in Relative Light Units (RLU).

[2] = tested on: PSA; assay: Effect of trigger pH: PSA on LodeStar particles with ascorbate; format: biochemical
Experimental: B. In order to determine the effect of trigger solution pH on a variety of test assay systems, a series of experiments were conducted varying trigger pH. […] In the tables, two pH values are listed for each data set. The first is the pH of the buffer sample added to the reaction mixture. The second is the resulting pH of the final reaction mix.

[3] = Control (7.7), S1, PSA 400 pg/ml
[4] = Control (7.7), S2, PSA 1400 pg/ml
[5] = Control (7.7), S3, PSA 7000 pg/ml
[6] = Control (7.7), S4, PSA 51000 pg/ml
[7] = Control (7.7), S5, PSA 101600 pg/ml
[8] = pH 6.0 (6.2), S1, PSA 400 pg/ml
[9] = pH 6.0 (6.2), S2, PSA 1400 pg/ml
[10] = pH 6.0 (6.2), S3, PSA 7000 pg/ml
[11] = pH 6.0 (6.2), S4, PSA 51000 pg/ml
[12] = pH 6.0 (6.2), S5, PSA 101600 pg/ml
[13] = pH 7.0 (7.4), S1, PSA 400 pg/ml
[14] = pH 7.0 (7.4), S2, PSA 1400 pg/ml
[15] = pH 7.0 (7.4), S3, PSA 7000 pg/ml
[16] = pH 7.0 (7.4), S4, PSA 51000 pg/ml
[17] = pH 7.0 (7.4), S5, PSA 101600 pg/ml
[18] = pH 8.0 (7.9), S1, PSA 400 pg/ml
[19] = pH 8.0 (7.9), S2, PSA 1400 pg/ml
[20] = pH 8.0 (7.9), S3, PSA 7000 pg/ml
[21] = pH 8.0 (7.9), S4, PSA 51000 pg/ml
[22] = pH 8.0 (7.9), S5, PSA 101600 pg/ml
[23] = pH 9.0 (8.4), S1, PSA 400 pg/ml
[24] = pH 9.0 (8.4), S2, PSA 1400 pg/ml

O=C1O[C@H]([C@@H](O)CO)C(O)=C1O [Ascorbic Acid, Ascorbic acid]
RLU ([1]; S0, beta hCG 0 IU/mL): 1,031 RLU
RLU ([1]; S1, beta hCG 4.35 IU/mL): 7,288 RLU
S/S0 ([1]; S1, beta hCG 4.35 IU/mL): 7
RLU ([1]; S2, beta hCG 20.81 IU/mL): 35,320 RLU
S/S0 ([1]; S2, beta hCG 20.81 IU/mL): 34
RLU ([1]; S3, beta hCG 127.285 IU/mL): 298,108 RLU
S/S0 ([1]; S3, beta hCG 127.285 IU/mL): 289
RLU ([1]; S4, beta hCG 413.455 IU/mL): 1,293,751 RLU
S/S0 ([1]; S4, beta hCG 413.455 IU/mL): 1,255
RLU ([1]; S5, beta hCG 775.805 IU/mL): 2,225,779 RLU
S/S0 ([1]; S5, beta hCG 775.805 IU/mL): 2,159
Mean RLU ([2]; Control (7.7), S0, PSA 0 pg/ml): 8,192 RLU
Mean RLU [2, 3]: 91,301 RLU
S/S0 [2, 3]: 11.1
Mean RLU [2, 4]: 403,035 RLU
S/S0 [2, 4]: 49.2
Mean RLU [2, 5]: 2,803,433 RLU
S/S0 [2, 5]: 342.2
Mean RLU [2, 6]: 10,490,375 RLU
S/S0 [2, 6]: 1280.6
Mean RLU [2, 7]: 10,598,780 RLU
S/S0 [2, 7]: 1293.8
Mean RLU ([2]; pH 6.0 (6.2), S0, PSA 0 pg/ml): 3,301 RLU
Mean RLU [2, 8]: 34,485 RLU
S/S0 [2, 8]: 10.4
Mean RLU [2, 9]: 114,219 RLU
S/S0 [2, 9]: 34.6
Mean RLU [2, 10]: 786,859 RLU
S/S0 [2, 10]: 238.3
Mean RLU [2, 11]: 3,198,045 RLU
S/S0 [2, 11]: 968.7
Mean RLU [2, 12]: 3,728,345 RLU
S/S0 [2, 12]: 1129.3
Mean RLU ([2]; pH 7.0 (7.4), S0, PSA 0 pg/ml): 7,704 RLU
Mean RLU [2, 13]: 87,221 RLU
S/S0 [2, 13]: 11.3
Mean RLU [2, 14]: 333,253 RLU
S/S0 [2, 14]: 43.3
Mean RLU [2, 15]: 2,640,633 RLU
S/S0 [2, 15]: 342.8
Mean RLU [2, 16]: 9,524,603 RLU
S/S0 [2, 16]: 1236.3
Mean RLU [2, 17]: 10,001,948 RLU
S/S0 [2, 17]: 1298.3
Mean RLU ([2]; pH 8.0 (7.9), S0, PSA 0 pg/ml): 9,345 RLU
Mean RLU [2, 18]: 96,427 RLU
S/S0 [2, 18]: 10.3
Mean RLU [2, 19]: 429,327 RLU
S/S0 [2, 19]: 45.9
Mean RLU [2, 20]: 3,433,037 RLU
S/S0 [2, 20]: 367.4
Mean RLU [2, 21]: 11,497,652 RLU
S/S0 [2, 21]: 1230.3
Mean RLU [2, 22]: 11,461,215 RLU
S/S0 [2, 22]: 1226.4
Mean RLU ([2]; pH 9.0 (8.4), S0, PSA 0 pg/ml): 5,821 RLU
Mean RLU [2, 23]: 73,801 RLU
S/S0 [2, 23]: 12.7
Mean RLU [2, 24]: 315,528 RLU
S/S0 [2, 24]: 54.2
